In ChEMBL document CHEMBL4477261, “Design, synthesis and evaluation of the multidrug resistance-reversing activity of pyridine acid esters of podophyllotoxin in human leukemia cells” (Bioorg Med Chem Lett, 2016):
The source made the active and inactive calls. The calls are words filed in the database; no cut-off is given here.

Key:
[1] = biological target: T1, Mitogen-activated protein kinase; ERK1/ERK2 (Homo sapiens) (UniProt P27361+P28482); assay: Activation of ERK1/2 signalling in human K562/ADR cells assessed as increase in cleaved caspase-8 expression at 0.05 uM after 48 hrs by Western blot analysis relative to control; format: cell-based
T1 sequence (P27361 whole entry, looked up): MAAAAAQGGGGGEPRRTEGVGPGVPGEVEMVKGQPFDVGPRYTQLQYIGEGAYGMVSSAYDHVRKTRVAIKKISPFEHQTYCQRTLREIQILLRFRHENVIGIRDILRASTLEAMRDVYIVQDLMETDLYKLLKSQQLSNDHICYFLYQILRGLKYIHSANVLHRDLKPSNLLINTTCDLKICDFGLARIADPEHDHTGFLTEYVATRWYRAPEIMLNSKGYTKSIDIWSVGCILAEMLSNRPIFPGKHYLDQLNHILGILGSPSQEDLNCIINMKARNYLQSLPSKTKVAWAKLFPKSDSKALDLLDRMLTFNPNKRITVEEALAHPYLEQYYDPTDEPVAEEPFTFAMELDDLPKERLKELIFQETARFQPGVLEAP
T1 sequence (P28482 whole entry, looked up): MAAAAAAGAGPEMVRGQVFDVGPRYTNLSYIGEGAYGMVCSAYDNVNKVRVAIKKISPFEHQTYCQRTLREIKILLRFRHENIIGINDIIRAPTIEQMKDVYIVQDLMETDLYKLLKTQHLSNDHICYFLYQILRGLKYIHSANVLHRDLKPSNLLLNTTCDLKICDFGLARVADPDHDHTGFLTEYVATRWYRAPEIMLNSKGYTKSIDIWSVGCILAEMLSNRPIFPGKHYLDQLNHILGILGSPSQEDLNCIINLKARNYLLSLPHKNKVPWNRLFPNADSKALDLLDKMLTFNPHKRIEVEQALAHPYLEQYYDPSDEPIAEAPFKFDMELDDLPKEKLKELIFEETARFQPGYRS

K562/Adr [2] = assay: Induction of apoptosis in human K562/ADR cells assessed as necrotic cells at 0.05 uM after 48 hrs by Annexin V-APC/7-AAD staining based flow cytometry (reference value: 2.47%); format: functional
K562/Adr [3] = assay: Antiproliferative activity against human K562/ADR cells after 72 hrs by CCK8 assay; format: functional, cell-based
[4] = biological target: T1, Mitogen-activated protein kinase; ERK1/ERK2 (Homo sapiens); assay: Activation of ERK1/2 signalling in human K562/ADR cells assessed as suppression of CyclinB1 protein expression at 0.05 uM after 48 hrs by Western blot analysis relative to control; format: cell-based
K562/Adr [5] = assay: Induction of apoptosis in human K562/ADR cells assessed as early apoptotic cells at 0.05 uM after 48 hrs by Annexin V-APC/7-AAD staining based flow cytometry (reference value: 1.99%); format: functional
[6] = biological target: T1, Mitogen-activated protein kinase; ERK1/ERK2 (Homo sapiens); assay: Induction of ERK1/2 phosphorylation in human K562/ADR cells at 0.05 uM after 48 hrs by Western blot analysis relative to control; format: cell-based
[7] = biological target: T1, Mitogen-activated protein kinase; ERK1/ERK2 (Homo sapiens); assay: Activation of ERK1/2 signalling in human K562/ADR cells assessed as increase in cleaved caspase-9 expression at 0.05 uM after 48 hrs by Western blot analysis relative to control; format: cell-based
K562/Adr [8] = assay: Induction of apoptosis in human K562/ADR cells assessed as nuclear fragmentation at 0.05 uM after 48 hrs by Hoechst 33342 staining based fluorescent microscopic analysis; format: functional, cell-based
K562/Adr [9] = assay: Effect on total ERK1/2 protein expression level in human K562/ADR cells at 0.05 uM after 48 hrs by Western blot analysis relative to control; format: ADME, cell-based
K562 = assay: Resistance factor, ratio of IC50 for human K562/ADR cells to IC50 for human K562 cells; format: functional
K562/Adr [10] = assay: Induction of apoptosis in human K562/ADR cells assessed as late apoptotic cells at 0.05 uM after 48 hrs by Annexin V-APC/7-AAD staining based flow cytometry (reference value: 3.89%); format: functional
[11] = biological target: T1, Mitogen-activated protein kinase; ERK1/ERK2 (Homo sapiens); assay: Activation of ERK1/2 signalling in human K562/ADR cells assessed as suppression of CDK1 protein expression at 0.05 uM after 48 hrs by Western blot analysis relative to control; format: cell-based
K562/Adr [12] = assay: Cell cycle arrest in human K562/ADR cells assessed as accumulation in S phase at 0.05 uM after 48 hrs by propidium iodide staining based flow cytometry; format: functional
K562/Adr [13] = assay: Induction of apoptosis in human K562/ADR cells assessed as chromatin condensation at 0.05 uM after 48 hrs by Hoechst 33342 staining based fluorescent microscopic analysis; format: functional, cell-based
[14] = biological target: T1, Mitogen-activated protein kinase; ERK1/ERK2 (Homo sapiens); assay: Activation of ERK1/2 signalling in human K562/ADR cells assessed as suppression of P-gp expression at 0.05 uM after 48 hrs by Western blot analysis relative to control; format: cell-based
K562/Adr [15] = assay: Induction of apoptosis in human K562/ADR cells assessed as live cells at 0.05 uM after 48 hrs by Annexin V-APC/7-AAD staining based flow cytometry (reference value: 91.65%); format: functional
[16] = biological target: T1, Mitogen-activated protein kinase; ERK1/ERK2 (Homo sapiens); assay: Activation of ERK1/2 signalling in human K562/ADR cells assessed as increase in cleaved caspase-3 expression at 0.05 uM after 48 hrs by Western blot analysis relative to control; format: cell-based

Question: What does the source list for `COc1cc([C@@H]2c3cc4c(cc3[C@H](O)[C@H]3COC(=O)[C@H]23)OCO4)cc(OC)c1OC` [PODOFILOX]?
Answer: fold change (FC) [1]: 0.7; Activity (K562/Adr [2]): 7.73%; IC50 (K562/Adr [3]): 25 nM; fold change (FC) [4]: 0.02; Activity (K562/Adr [5]): 7.94%; fold change (FC) [6]: 0.63; fold change (FC) [7]: 0.74; Activity (K562/Adr [8]): Active; fold change (FC) (K562/Adr [9]): 0.88; Ratio IC50 (K562): 4.166; Activity (K562/Adr [10]): 43.5%; fold change (FC) [11]: 0.4; Activity (K562/Adr [12]): Active; Activity (K562/Adr [13]): Active; fold change (FC) [14]: 0.03; Activity (K562/Adr [15]): 40.83%; fold change (FC) [16]: 0.76
